Test system: human tumor cell lines of the cancer screening panel
Assay: in vitro antiproliferation, NCI 60 cancer cell line panel (SRB)
Format: cell-based
Settings: 48 h
Description: NTW-3475 was also tested for its antiproliferative potential using cell lines from the NCI 60 cancer cell line panel.
The human tumor cell lines of the cancer screening panel are grown in RPMI 1640 medium containing 5% fetal bovine serum and 2 mM L-glutamine. For a typical screening experiment, cells are inoculated into 96 well microtiter plates in 100 μL at plating densities ranging from 5,000 to 40,000 cells/well depending on the doubling time of individual cell lines. After cell inoculation, the microtiter plates are incubated at 37° C., 5% CO2, 95% air and 100% relative humidity for 24 h prior to addition of experimental drugs. […]
Following drug addition, the plates are incubated for an additional 48 h at 37° C., 5% CO2, 95% air, and 100% relative humidity. […] Bound stain is subsequently solubilized with 10 mM trizma base, and the absorbance is read on an automated plate reader at a wavelength of 515 nm. […] Using the seven absorbance measurements [time zero, (Tz), control growth, (C), and test growth in the presence of drug at the five concentration levels (Ti)], the percentage growth is calculated at each of the drug concentrations levels. Percentage growth inhibition is calculated as: [(Ti-Tz)/(C-Tz)]×100 for concentrations for which Ti>/=Tz [(Ti-Tz)/Tz]×100 for concentrations for which Ti<Tz.
Three dose response parameters are calculated for each experimental agent. […]

Cc1cc2c(F)c(Oc3nc(Nc4cc(C5CC5)[nH]n4)cc(N4CCN(C)CC4)n3)cc(F)c2[nH]1 [NTW-3475]
antiproliferative activity: strong antiproliferative activity in at least 13 of the 16 cell lines studied
